Experimental data taken from patent US20240216384A1, “COMPOSITION FOR PREVENTING OR TREATING METABOLIC DISEASES, CONTAINING TRICYCLO DERIVATIVE COMPOUND” (ONCOCROSS CO.,LTD., priority 2021, published 2024).
Counter-ions that a name gives are not always drawn.

How the values were obtained:
HepG2 cell line = assay: Oleic acid-induced fat accumulation, Oil-Red O staining; format: cell-based; details: for fat accumulation inhibitory effect: HepG2 treated with oleic acid, Oil-Red O
Protocol: By treating the HepG2 cell line, a liver cancer cell line, with oleic acid, fat accumulation was induced into cells, and simultaneously, JPI-289 was treated together to identify the effect of JPI-289 on inhibiting fat accumulation using the Oil-Red O staining method. Herein, INT-747, a drug that succeeded in phase 3 clinical trials for NASH indication, was treated as a positive control group.

TGF-beta2 = TGF-beta2 inhibition at RNA level in Hep3B cells; format: cell-based; details: compared to INT-747
Protocol: (§1) A MOA study was conducted to identify the mechanism that has a more significant effect than other PARP inhibitors as in Example 3-1. Specifically, the Hep3B cell line was treated with 300 uM H2O2 for 2 hours to generate a ROS rich situation for NASH, and treated with TCDD (Tetrachlorodibenzo-p-dioxin) at 10 nM for 24 hours to induce overexpression of TIPARP. Then, PARylation was identified, and the influences of JPI-289 (10 uM and 24 hours) and PJ34 (10 uM and 24 hours) were identified, respectively. In addition, DMOG, which induces hypoxia by inhibiting the degradation of HIF-1α, a hypoxia-related gene that appears in the early stages of fibrosis, was treated at 1 mM for 24 hours, and the influences of JPI-289 (10 uM and 24 hours) and PJ34 (10 uM and 24 hours) were also identified. In addition, as a positive control group, it was compared with INT-747, a drug that successfully completed phase 3 clinical trials for NASH indication.
The inhibitory effects of TGF-beta2 (a downstream signal of HIF-1) by JPI-289 and INT-747 in Hep3B cell line were compared at the RNA level under the same conditions as in Example 4-1.

HIF-1α [1] = assay: HIF-1α expression in liver of high-fat diet mice, tissue immunochemical analysis; format: in vivo; details: JPI-289 50 mpk for 6 weeks, compared to PJ34 (10 mpk) or INT-747 (10 mpk)
Protocol: To identify the HIF-1 inhibitory effect of INT-747 and JPI-289 in Example 4-1 also in vivo, 5-week-old mice were placed on a high-fat diet (HFD) 1 week after introduction. After 6 weeks, JPI-289 (50 mpk), PJ34 (10 mpk), and INT-747 (10 mpk) were administered for a total of 6 weeks, respectively, and the level of HIF-1α expression in the liver was identified by tissue immunochemical analysis.

vimentin = assay: Vimentin expression in Hep3B cells upon TCDD; format: cell-based; details: compared to INT-747-treated group
Protocol: as §1

[2] = test system: MCF7, PC3, and HL60 cell lines; assay: MTT analysis of JPI-289 toxicity in multiple cell lines; format: cell-based
Protocol: To identify the toxicity of JPI-289 to cells, MTT analysis was performed using three cell lines: MCF7, PC3, and HL60 (indicated as Cell 1 to Cell 3 in FIG. 1, respectively). Specifically, each cell line was treated with a control group, a DMSO control group (vehicle control), and JPI-289 (10-ethoxy-8-(morpholinomethyl)-2,3,4,6-tetrahydrobenzo[h][1,6]naphthyridin-5(1H)-one dihydrochloride dihydrate) at concentrations of 0.5, 1, 5, 10, 20, and 40 uM, and then treated with MTT tetrazolium after 24, 48, and 72 hours. Then, the cell viability was measured by forming formazan crystals, dissolving the same using DMSO (dimethyl sulfoxide), and measuring the absorbance using an ELISA reader.

STAM™ mouse model [3] = assay: STAM mouse model, long-term (6 weeks) administration; format: in vivo
Protocol: After administering JPI-289 (10 mg/kg) for a total of 6 weeks from 6 to 12 weeks in the same manner as in Example 6 (FIG. 19), the fibrosis area was checked.
After administering JPI-289 (10 mg/kg) for a total of 6 weeks from 6 to 12 weeks in the same manner as in Example 6, the NAFLD score and ballooning score were checked to identify the degree of inhibition of fatty liver.

3T3L1 cell line = assay: MTT analysis of JPI-289 toxicity in preadipocyte cell line; format: cell-based, mouse; details: 0.05 to 5 uM for 24, 48, or 72 hours
Protocol: The 3T3L1 cell line, a preadipocyte cell line, was dispensed in a 96-well plate, and treated with JPI-289 at a concentration of 0.05 to 5 uM for 24, 48, or 72 hours, and MTT analysis was performed.

STAM™ mouse model [4] = assay: STAM mouse model, short-term (3 weeks) administration; format: in vivo
Protocol: Streptozotocin was administered on the second day after birth, and a high-fat diet was administered starting 4 weeks after birth, causing non-alcoholic steatohepatitis (NASH) at 7 to 8 weeks of age. To identify the effect of JPI-289 on NASH and early fibrosis in the STAM™ mouse model (FIG. 15) in which fibrosis is induced by steatohepatitis at 9 to 12 weeks, the drug was administered at 10 mg/kg and 50 mg/kg, respectively for a total of 3 weeks, from 6 to 9 weeks, and the fibrosis-induced area was identified (FIG. 16).
JPI-289 was administered as in Example 6-1, and the NAFLD score and ballooning score were identified as values for evaluating fatty liver.

PARP1 = PARP1 expression in Hep3B cells upon TCDD; format: cell-based; details: compared to INT-747-treated group
Protocol: as §1

HIF-1α [5] = assay: HIF-1α expression in Hep3B cells upon DMOG; format: cell-based; details: 10 uM, 24 hours, DMOG 1 mM
Protocol: as §1

[6] = test system: mouse preadipocyte cell line 3T3L1; assay: Adipocyte differentiation / fat accumulation, Oil-Red O staining; format: cell-based; details: for differentiation into adipocytes: 3T3L1, Oil-Red O
Protocol: To induce differentiation of mouse preadipocyte cell line 3T3L1 into adipocytes, DMEM medium containing 10% FBS was treated with insulin, dexamethasone, and isobutylmetylxanthin (IBMX). JPI-289 was treated with a differentiation medium from the start day of inducing differentiation into adipocytes to the end of differentiation. At the end of differentiation, cells were fixed and differentiated adipocytes were stained red using Oil-Red O. The degree of staining was recorded in a photograph, Oil Red was dissolved, and the O.D. value was measured using an ELISA reader.
To identify the inhibitory effect of JPI-289 at a concentration of 5 uM or less on adipocyte differentiation, a re-experiment was performed on the 3T3L1 cell line. Specifically, JPI-289s at concentrations of 0.05, 0.1, 0.25, 0.5, 1, and 2.5 uM were treated together with the differentiation culture medium, respectively, to induce differentiation into adipocytes, and the differentiation into adipocytes and fat accumulation were identified by staining using Oil-Red O.
The fat accumulation inhibitory effects of other PARP inhibitors, 5-AIQ (10 uM), PJ34 (10 uM), and olaparib (5 uM), and JPI-289 (0.25 to 2.5 uM) were compared in the mouse preadipocyte cell line 3T3L1 by the method of Example 2 above.

TIPARP = TIPARP expression in Hep3B cells upon TCDD; format: cell-based; details: for expression of TIPARP: 10 uM, 24 hours, upon TCDD administration (FIG. 7B)
Protocol: as §1

PARylation = PARylation in Hep3B cells in NASH environment (H2O2, TCDD); format: cell-based; details: 10 uM, 24 hours, 300 uM H2O2, TCDD 10 nM, compared to PJ-34
Protocol: as §1

[7] = test system: high-fat diet mouse model; assay: High-fat diet animal model: body weight, liver size and weight; format: in vivo; details: 6 weeks; for liver size and weight: compared to high-fat diet group
Protocol: A high-fat diet animal model was created, and after 6 weeks, JPI-289 (JPI) and a positive control group of INT-747 (INT) were administered for a total of 6 weeks (FIG. 12), and body weight, liver size, and weight were checked. As a result, weight loss was identified in the group administered 50 mpk of JPI-289 compared to the high-fat diet group and the INT-747 administration group (FIG. 13). In addition, compared to the high-fat diet group, liver size and weight were decreased in the JPI-289 10 mpk administration group, JPI-289 50 mpk administration group, and INT-747 10 mpk administration group.

[8] = 10 mg/kg, 6 weeks, compared to control group

## CC[C@H]1[C@@H](O)[C@@H]2[C@H](CC[C@]3(C)[C@@H]([C@H](C)CCC(=O)O)CC[C@@H]23)[C@@]2(C)CC[C@@H](O)C[C@@H]12 [INT-747, reference compound]
HepG2 cell line
  fat accumulation inhibitory effect: about 13%

## CCOc1cc(CN2CCOCC2)cc2[nH]c(=O)c3c(c12)NCCC3 [JPI-289, 10-ethoxy-8-(morpholinomethyl)-2,3,4,6-tetrahydrobenzo[h][1,6]naphthyridin-5(1H)-one dihydrochloride dihydrate]
TGF-beta2
  TGF-beta2 at the RNA level: significantly inhibited
HIF-1α [1]
  HIF-1α expression in the liver: significantly decreased
HepG2 cell line; HepG2, high concentrations
  concentration dependence of fat accumulation inhibition: more effective at high concentrations
HepG2 cell line
  fat accumulation inhibitory effect: about 21%
vimentin
  expression of vimentin, a fibrosis marker: decreased
[2]; concentrations of 20 and 40 uM
  toxicity to cells (MTT cell viability): toxic
[2]; up to a concentration of 10 uM, for 72 hours
  toxicity to cells (MTT cell viability): not toxic
STAM™ mouse model [3]; 10 mg/kg, 6 weeks (6 to 12 weeks), compared to Vehicle
  fibrosis area: significantly decreased
STAM™ mouse model [3]; [8]
  NAFLD score: significantly decreased
  ballooning score: decreased
STAM™ mouse model [3]; low dose for 6 weeks
  overall effect versus control group: superior effect compared to the control group
3T3L1 cell line
  toxicity (MTT analysis): no significant effect
STAM™ mouse model [4]; 10 mg/kg and 50 mg/kg, 3 weeks
  NAFLD score: decrease
  ballooning score: decrease
STAM™ mouse model [4]; 10 mg/kg and 50 mg/kg, 3 weeks (6 to 9 weeks of age)
  fibrosis area: significantly decreased
STAM™ mouse model [4]; administered for 3 weeks, all dose groups
  overall effect versus control group: more effective than the control group
PARP1
  expression of PARP1: significantly decreased
HIF-1α [5]
  expression of HIF-1α: significantly decreased
[6]; 250 nM (0.25 uM), 3T3L1
  fat accumulation decrease: about 37%
[6]; 5 uM or higher
  differentiation into adipocytes: inhibited depending on the concentration
[6]; 5 uM or higher, Oil-Red O
  fat accumulation in 3T3L1 cells: significantly decreased
[6]; 0.05 to 2.5 uM
  differentiation into adipocytes: inhibited depending on the concentration
[6]; JPI-289 2.5 uM, 3T3L1
  fat accumulation inhibitory effect compared to olaparib 5 uM: similar
[6]; JPI-289 0.25 to 2.5 uM, 3T3L1
  fat accumulation inhibitory effect compared to 5-AIQ (10 uM) and PJ34 (10 uM): significantly superior
[6]; Mus musculus, 3T3-L1, 50 nM (0.05 uM), 3T3L1, read-out: differentiation inhibitory effect
  inhibition at 0.05 µM: ~15%
TIPARP
  expression of TIPARP: significantly increased
TIPARP; upon TCDD, compared to INT-747-treated group (FIG. 8)
  TIPARP: increased
PARylation
  PARylation: significantly inhibited
[7]; 10 mpk
  liver size and weight: decreased
[7]; 50 mpk
  liver size and weight: significant decrease
[7]; 50 mpk, compared to high-fat diet group and INT-747 group
  body weight: weight loss

## CN(C)CC(=O)Nc1ccc2[nH]c(=O)c3ccccc3c2c1 [PJ34, reference compound]
HIF-1α [5]
  expression of HIF-1α: did not decrease
TIPARP
  expression of TIPARP: almost no increase
